This is an account of results in patent US20230265116A1, “DEGRADATION OF (EGFR) BY CONJUGATION OF EGFR INHIBITORS WITH E3 LIGASE LIGAND AND METHODS OF USE” (BEIGENE, LTD., priority 2020, published 2023).

Holding throughout (assay type): cell-based
Assay [1] concerns EGFR Del19/T790M/C797S (H1975-clone #28). Briefly: EGFR degradation HTRF assay, H1975-clone #28 DTC cells. As to conditions: H1975 # 28 DTC cells; for DC50: EGFR degradation, IC50 (DC50) from curve fit, read-out: DC50(nM) H1975 # 28 DTC; for Dmax (%) H1975 # 28 DTC: maximum percentage of inhibition (degradation). An outline of the steps:
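H1975 clones stably overexpressing mutant EGFR, with endogenous EGFR knocked out by sgRNA and homozygosity confirmed by sequencing, were treated 16h at 37° C. with compounds in 0.2% DMSO (top final 10 uM, 5-fold, 8 doses). Lysates were read by HTRF (665/620 nm); DC50 and Dmax came from fitting % degradation versus DMSO control.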

For assay [2], the target named is T1, EGFR L858R/T790M/C797S (BaF3-LTC cells) (Homo sapiens, UniProt P00533, C797S/L858R/T790M).
T1 construct: expressed in transfected cells; host or cells: BaF3
T1 sequence (P00533 25-1210 T790M/C797S/L858R): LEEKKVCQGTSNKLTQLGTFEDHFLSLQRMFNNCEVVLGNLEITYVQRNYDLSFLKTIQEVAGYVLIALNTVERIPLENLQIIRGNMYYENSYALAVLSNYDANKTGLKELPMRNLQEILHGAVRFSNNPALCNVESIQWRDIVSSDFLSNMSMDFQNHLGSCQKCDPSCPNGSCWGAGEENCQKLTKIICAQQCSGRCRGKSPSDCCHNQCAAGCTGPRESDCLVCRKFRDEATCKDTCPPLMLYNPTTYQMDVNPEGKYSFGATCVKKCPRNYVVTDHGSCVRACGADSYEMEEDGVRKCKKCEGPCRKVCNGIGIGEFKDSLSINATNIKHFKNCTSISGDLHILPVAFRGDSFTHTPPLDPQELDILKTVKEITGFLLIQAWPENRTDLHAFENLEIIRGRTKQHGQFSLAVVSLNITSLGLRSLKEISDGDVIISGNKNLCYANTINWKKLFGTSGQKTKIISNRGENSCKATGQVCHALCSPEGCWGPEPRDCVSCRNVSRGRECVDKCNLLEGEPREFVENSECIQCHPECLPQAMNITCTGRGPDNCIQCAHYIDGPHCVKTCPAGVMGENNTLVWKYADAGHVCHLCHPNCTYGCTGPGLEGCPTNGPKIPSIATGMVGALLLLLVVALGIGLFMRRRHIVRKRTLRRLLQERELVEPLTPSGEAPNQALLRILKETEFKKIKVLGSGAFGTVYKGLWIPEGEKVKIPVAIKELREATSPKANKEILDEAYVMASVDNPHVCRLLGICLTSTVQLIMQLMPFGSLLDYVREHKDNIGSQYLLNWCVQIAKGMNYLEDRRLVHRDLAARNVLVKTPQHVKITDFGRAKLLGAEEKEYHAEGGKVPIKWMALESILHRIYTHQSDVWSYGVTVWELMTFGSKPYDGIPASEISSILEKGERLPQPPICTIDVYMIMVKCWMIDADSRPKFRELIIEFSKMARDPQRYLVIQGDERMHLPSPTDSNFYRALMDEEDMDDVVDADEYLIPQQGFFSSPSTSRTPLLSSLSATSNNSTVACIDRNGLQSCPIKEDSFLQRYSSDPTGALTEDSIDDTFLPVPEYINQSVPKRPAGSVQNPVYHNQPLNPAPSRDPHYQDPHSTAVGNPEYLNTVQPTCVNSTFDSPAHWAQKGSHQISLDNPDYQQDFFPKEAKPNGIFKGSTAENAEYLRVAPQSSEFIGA
Nature of the assay: EGFR degradation HTRF assay, BaF3-LTC cells. As to conditions: BaF3-LTC cells; for DC50: EGFR degradation, IC50 (DC50) from curve fit, read-out: DC50(nM) BaF3-LTC; for Dmax: maximum percentage of inhibition (degradation), read-out: Dmax (%) BaF3-LTC. A digest of the protocol:
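EGFR remaining after a 16 h, 37 °C exposure (8 doses, 5-fold steps from 10 uM final, 0.2% DMSO) was quantified by HTRF antibodies in cell lysate. Percent inhibition relative to DMSO control was fitted by four-parameter logistic to give DC50; Dmax denotes maximal degradation.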

The target of assay [3] is T2, EGFR L858R/C797S (BaF3 LC cells) (Homo sapiens, UniProt P00533, C797S/L858R).
T2 construct: expressed in transfected cells; host or cells: BaF3
T2 sequence (P00533 25-1210 C797S/L858R): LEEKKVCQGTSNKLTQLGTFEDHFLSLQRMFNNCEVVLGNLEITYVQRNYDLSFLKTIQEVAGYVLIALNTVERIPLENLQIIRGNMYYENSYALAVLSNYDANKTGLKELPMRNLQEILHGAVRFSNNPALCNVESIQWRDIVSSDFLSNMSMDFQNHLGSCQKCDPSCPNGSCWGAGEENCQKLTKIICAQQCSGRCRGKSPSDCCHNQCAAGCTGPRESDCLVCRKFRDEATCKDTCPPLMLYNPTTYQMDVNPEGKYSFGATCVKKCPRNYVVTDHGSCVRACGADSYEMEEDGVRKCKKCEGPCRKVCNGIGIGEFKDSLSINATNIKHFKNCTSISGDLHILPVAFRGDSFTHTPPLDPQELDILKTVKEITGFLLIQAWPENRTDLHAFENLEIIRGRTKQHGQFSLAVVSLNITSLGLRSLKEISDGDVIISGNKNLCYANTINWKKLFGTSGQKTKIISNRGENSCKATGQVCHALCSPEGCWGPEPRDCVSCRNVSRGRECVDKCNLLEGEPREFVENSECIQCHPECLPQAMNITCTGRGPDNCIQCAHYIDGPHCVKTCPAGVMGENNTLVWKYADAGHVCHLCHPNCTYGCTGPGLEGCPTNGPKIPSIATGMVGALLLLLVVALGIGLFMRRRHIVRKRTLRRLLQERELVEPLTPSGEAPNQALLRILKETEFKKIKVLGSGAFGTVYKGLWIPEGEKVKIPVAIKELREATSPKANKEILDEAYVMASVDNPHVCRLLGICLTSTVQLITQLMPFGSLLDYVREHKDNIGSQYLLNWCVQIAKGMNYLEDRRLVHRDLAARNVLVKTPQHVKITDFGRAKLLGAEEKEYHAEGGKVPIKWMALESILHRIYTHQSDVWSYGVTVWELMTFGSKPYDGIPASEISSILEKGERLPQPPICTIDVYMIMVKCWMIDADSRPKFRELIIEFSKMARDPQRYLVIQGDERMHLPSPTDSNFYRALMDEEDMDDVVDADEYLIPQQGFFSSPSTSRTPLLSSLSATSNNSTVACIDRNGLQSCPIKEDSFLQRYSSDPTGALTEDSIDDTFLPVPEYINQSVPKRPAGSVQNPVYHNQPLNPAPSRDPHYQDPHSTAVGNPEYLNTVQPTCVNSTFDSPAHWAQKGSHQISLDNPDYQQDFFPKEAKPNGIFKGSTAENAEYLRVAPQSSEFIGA
Briefly: EGFR degradation HTRF assay, BaF3 LC cells. Particulars: BaF3 LC, 16h treatment; for DC50: read-out: BaF3 LC DC50; for Dmax: maximum percentage of degradation, read-out: BaF3 LC Dmax (%). Background: In TR-FRET formats the signal depends on donor and acceptor labels being close together.

For assay [4], the system named is EGFR Del19/C797S (H1975-clone #23). Nature of the assay: EGFR degradation HTRF assay, H1975-clone #23 DC cells. As to conditions: 16h treatment; for H1975 #23 DC Dmax (%): maximum percentage of degradation; for DC50: H1975 #23 DC, read-out: H1975 #23 DC DC50. How it is done:
H1975-clone #28(Del19/T790M/C797S) and H1975-clone #23(Del19/C797S). EGFR-Del19/T790M/C797S and EGFR-Del19/C797S were stably expressed in H1975 cell lines by lentivirus-mediated over-expression, respectively. The EGFR over-expressed cells then underwent gene knockout, in which the EGFR targeting sgRNA was designed to only target the endogenous EGFR copies and preserve the exogenous EGFR copies. Followed by the gene knockout, the edited H1975 cells were seeded in 96 well plates at the concentration of 1 cell/well, cultured for about 2 weeks to allow single clones formation. The formed clones were screened by DNA sequencing and whole exon sequencing analysis for the desired edition. H1975-clone #28 and H1975-clone #23 were finally confirmed as homozygous Del19/T790M/C797S EGFR and Del19/C797S EGFR clones, respectively.
BaF3 WT(wild type), BaF3-LTC(L858R/T790M/C797S) and BaF3-DTC(Del19/T790M/C797S) cells are treated with compounds diluted in 0.2% DMSO cell culture medium and incubate for 16h, 37° C., 5% CO2, H1975-#36, H1975-#28, H1975-#23 and HCC827 cells are treated with compounds diluted in 0.2% DMSO cell culture medium on day 2, incubate for 16h, 37° C., 5% CO2.the final concentriation of compounds in all assay is start with 10 uM, 5-fold dilution, total 8 doses were included.
After 16h treatment, add HTRF lysis buffer to each well; seal the plate and incubate 1 hour at room temperature on a plate shaker; Once the cells are lysed, 16 μL of cell lysate are transferred to a PE 384-well HTRF detection plate; 4 μL of pre-mixed HTRF antibodies are added to each well; Cover the plate with a plate sealer, spin 1000 rpm for 1 min, Incubate overnight at room temperature; Read on BMG PheraStar with HTRF protocol (337 nm-665 nm-620 nm).
The inhibition (degradation) percentage of the compound was calculated by the following equation: Inhibition percentage of Compound=100-100×(Signal-low control)/(High control-low control), wherein signal=each test compound group
High control=Cell group with added DMSO and without compound, indicating microplate readings without EGFR degradation;
Dmax is the maximum percentage of inhibition (degradation).
The IC50 (DC50) value of a compound can be obtained by fitting the following equation
Y=Bottom+(TOP−Bottom)/(1+((IC50/X)^hillslope))
Wherein, X and Y are known values, and IC50, Hillslope, Top and Bottom are the parameters obtained by fitting with software. Y is the inhibition percentage (calculated from the equation), X is the concentration of the compound; IC50 is the concentration of the compound when the 50% inhibition is reached. The smaller the IC50 value is, the stronger the inhibitory ability of the compound is. Vice versa, the higher the IC50 value is, the weaker the inhibitory ability of the compound is; Hillslope represents the slope of the fitted curve, generally around 1*; Bottom represents the minimum value of the curve obtained by data fitting, which is generally 0%±20%; Top represents the maximum value of the curve obtained by data fitting, which is generally 100%±20%. The experimental data were fitted by calculating and analyzing with Dotmatics data analysis software.

SMILES strings stand for the structures.

Turning to `CCOc1cc(N2CCC(N3CCN(CCc4cc(F)cc5c4n(C)c(=O)n5C4CCC(=O)NC4=O)CC3)CC2)c(CC)cc1Nc1ncc(Br)c(Nc2ccc3nc(CC)ccc3c2P(C)(C)=O)n1` (stereo not shown) [Example 462, 3-(4-(2-(4-(1-(4-((5-bromo-4-((5-(dimethylphosphoryl)-2-ethylquinolin-6-yl)amino)pyrimidin-2-yl)amino)-5-ethoxy-2-ethylphenyl)piperidin-4-yl)piperazin-1-yl)ethyl)-6-fluoro-3-methyl-2-oxo-2,3-dihydro-1H-benzo[d]imidazol-1-yl)piperidine-2,6-dione], the half-maximal degradation concentration (DC50) (commonly the concentration giving 50% degradation) stood at 1.12 nM in assay [1], 19.2 nM in assay [2], 67.7 nM in assay [3] and 3.19 nM in assay [4]. Further, the “Dmax (%) H1975 # 28 DTC” value in assay [1] was 78.37%. Also, the “H1975 #23 DC Dmax (%)” value in assay [4] is reported as 77.67%.

Take `CCOc1cc(N2CCC(N3CCN(CCc4ccc5c(c4)oc(=O)n5C4CCC(=O)NC4=O)CC3)CC2)c(CC)cc1Nc1ncc(Br)c(Nc2ccc3nc(CC)ccc3c2P(C)(C)=O)n1` (stereo not shown) [Example 463, 3-(6-(2-(4-(1-(4-((5-bromo-4-((5-(dimethylphosphoryl)-2-ethylquinolin-6-yl)amino)pyrimidin-2-yl)amino)-5-ethoxy-2-ethylphenyl)piperidin-4-yl)piperazin-1-yl)ethyl)-2-oxobenzo[d]oxazol-3(2H)-yl)piperidine-2,6-dione]: in assay [1], the DC50 was 0.26 nM and the “Dmax (%) H1975 # 28 DTC” value amounted to 82.73%. Also, in assay [2], the DC50 was 3.34 nM and the greatest degradation seen (Dmax) – broadly, the largest share of the target that was removed – amounted to 92.6%. Also, in assay [3], the Dmax was found to be 85.5% and the DC50 came to 6.88 nM. Besides, in assay [4], the “H1975 #23 DC Dmax (%)” value was found to be 56.75% and the half-maximal degradation concentration (DC50) stood at 0.951 nM.

`CCOc1cc(N2CCC(N3CCN(CCc4cc5oc(=O)n(C6CCC(=O)NC6=O)c5cc4C)CC3)CC2)c(CC)cc1Nc1ncc(Br)c(Nc2ccc3nc(CC)ccc3c2P(C)(C)=O)n1` (stereo not shown) [Example 465, 3-(6-(2-(4-(1-(4-((5-bromo-4-((5-(dimethylphosphoryl)-2-ethylquinolin-6-yl)amino)pyrimidin-2-yl)amino)-5-ethoxy-2-ethylphenyl)piperidin-4-yl)piperazin-1-yl)ethyl)-5-methyl-2-oxobenzo[d]oxazol-3(2H)-yl)piperidine-2,6-dione]: in assay [1], the 50% degradation concentration (DC50) was determined as 1.92 nM and the “Dmax (%) H1975 # 28 DTC” value came to 70.68%. In addition, in assay [2], the DC50 worked out at 2.46 nM and the Dmax came to 84.5%. Further, in assay [3], the maximal degradation (Dmax) was 92.7% and the half-maximal degradation concentration (DC50) was 1.94 nM. In addition, in assay [4], the “H1975 #23 DC Dmax (%)” value worked out at 48.97% and the DC50 is more than 16 nM.

As for `CCOc1cc(N2CCC(N3CCN(CCc4cccc5c4n(C4CC4)c(=O)n5C4CCC(=O)NC4=O)CC3)CC2)c(CC)cc1Nc1ncc(Br)c(Nc2ccc3nc(CC)ccc3c2P(C)(C)=O)n1` (stereo not shown) [Example 468, 3-(4-(2-(4-(1-(4-((5-bromo-4-((5-(dimethylphosphoryl)-2-ethylquinolin-6-yl)amino)pyrimidin-2-yl)amino)-5-ethoxy-2-ethylphenyl)piperidin-4-yl)piperazin-1-yl)ethyl)-3-cyclopropyl-2-oxo-2,3-dihydro-1H-benzo[d]imidazol-1-yl)piperidine-2,6-dione], in assay [1], the DC50 came to 0.998 nM and the “Dmax (%) H1975 # 28 DTC” value is 74.46%. Besides, in assay [2], the DC50 turned out to be 12.2 nM and the Dmax is 90.2%. Also, in assay [3], the greatest degradation seen (Dmax) was 82.8% and the DC50 stood at 66.1 nM. Also, in assay [4], the “H1975 #23 DC Dmax (%)” value is on record as 79.65% and the DC50 amounted to 11.9 nM.

In the case of `CCOc1cc(N2CCC(N3CCN(CCc4cc(C)cc5c4oc(=O)n5C4CCC(=O)NC4=O)CC3)CC2)c(CC)cc1Nc1ncc(Br)c(Nc2ccc3nc(CC)ccc3c2P(C)(C)=O)n1` (stereo not shown) [Example 469, 3-(7-(2-(4-(1-(4-((5-bromo-4-((5-(dimethylphosphoryl)-2-ethylquinolin-6-yl)amino)pyrimidin-2-yl)amino)-5-ethoxy-2-ethylphenyl)piperidin-4-yl)piperazin-1-yl)ethyl)-5-methyl-2-oxobenzo[d]oxazol-3(2H)-yl)piperidine-2,6-dione], in assay [1], the half-maximal degradation concentration (DC50) is 2.6 nM and the “Dmax (%) H1975 # 28 DTC” value was found to be 81.32%. In addition, in assay [2], the 50% degradation concentration (DC50) was 11.6 nM and the maximal degradation (Dmax) was 90%. Also, in assay [3], the Dmax was found to be 89.8% and the 50% degradation concentration (DC50) stood at 21.7 nM. Also, in assay [4], the “H1975 #23 DC Dmax (%)” value stood at 73.64% and the DC50 stood at 1.48 nM.

For `CCOc1cc(N2CCC(N3CCN(CCc4ccc(C)c5c4oc(=O)n5C4CCC(=O)NC4=O)CC3)CC2)c(CC)cc1Nc1ncc(Br)c(Nc2ccc3nc(CC)ccc3c2P(C)(C)=O)n1` (stereo not shown) [Example 470, 3-(7-(2-(4-(1-(4-((5-bromo-4-((5-(dimethylphosphoryl)-2-ethylquinolin-6-yl)amino)pyrimidin-2-yl)amino)-5-ethoxy-2-ethylphenyl)piperidin-4-yl)piperazin-1-yl)ethyl)-4-methyl-2-oxobenzo[d]oxazol-3(2H)-yl)piperidine-2,6-dione], the 50% degradation concentration (DC50) in assay [1] is more than 10000 nM; in assay [2], 418 nM; in assay [3], 300 nM; in assay [4], 9540 nM. For the same molecule, in assay [1], the “Dmax (%) H1975 # 28 DTC” value came to 39.87%. In addition, the Dmax amounted to 80.5% in assay [2] and 86.6% in assay [3]. In addition, in assay [4], the “H1975 #23 DC Dmax (%)” value is reported as 64.89%.

In the case of `CCOc1cc(N2CCC(N3CCN(CCc4cccc5c4oc(=O)n5C4CCC(=O)NC4=O)CC3)CC2)c(CC)cc1Nc1ncc(Br)c(Nc2ccc3nc(CC)ccc3c2P(C)(C)=O)n1` (stereo not shown) [Example 473, 3-(7-(2-(4-(1-(4-((5-bromo-4-((5-(dimethylphosphoryl)-2-ethylquinolin-6-yl)amino)pyrimidin-2-yl)amino)-5-ethoxy-2-ethylphenyl)piperidin-4-yl)piperazin-1-yl)ethyl)-2-oxobenzo[d]oxazol-3(2H)-yl)piperidine-2,6-dione], the half-maximal degradation concentration (DC50) stood at 0.616 nM in assay [1], 9.51 nM in assay [2], 73.4 nM in assay [3] and 12.8 nM in assay [4]. Moreover, in assay [1], the “Dmax (%) H1975 # 28 DTC” value worked out at 83.08%. In addition, the “H1975 #23 DC Dmax (%)” value in assay [4] stood at 82.45%.
